Columns and labels:
anesthetized dog = experiment: anesthetized dog, cardiac contractility and cardiac output; type: in vivo; conditions: for Co Increasing rate (%): blood flow rate in the aorta as index of cardiac output; for Cont Increasing rate (%): contractile force of the right cardiac ventricle muscle
Description: 3) Method of using anesthetized dog
Male or female mongrel dogs weighing 8 - 15 kg were used. The dogs were anesthetized with sodium pentobarbital at the dose of 30 mg/kg (intravenous injection) and then applied with artificial respiration. They were thoracotomised at the intercostal portion between forth and fifith costa, and the fifth costa was excised. Then the pericardium was cut to expose the heart. A probe of an electromagnetic flow meter was attached to the aorta to measure the blood flow rate in the aorta, which was used as an approximate index of the cardiac output (CO). A polyethylene cannula was inserted into the left cardiac ventricle to measure the intraventricular pressure, thereby the variation rate of the intraventricular pressure of the left cardiac ventricle (dp/dt) was electrically determined. A strain gauge was attached to the wall of the right cardiac ventricle to measure the contractile force of the right cardiac ventricle muscle (Cont). The systemic blood pressure was measured at the left femoral artery. The heart rate was measured by means- of a cardiotachometer. The compound dissolved in solvent was applied intravenously from the left femoral vein.

dog papillary muscle = experiment: cross-circulated preparation of isolated dog papillary muscle; conditions: Canis lupus familiaris, read-out: Contractile force of dog papillary muscle Increasing rate (%); for activation at 0.03 mg: Dosage 30 µg i.a.; for activation at 0.1 mg: Dosage 100 µg i.a.
Description: 1) Method of using cross-circulated preparation of isolated dog papillary muscle
Cross-circulated preparations of isolated dog papillary muscle were prepared according to the method of Endoh & Hashimoto, American J. Physiol., vol. 218, p.1459-1463, 1970, United States. The compound dissolved in solvent was injected to the artery close to the preparation, and the action of the compound on the contractile force of papillary muscle was determined.

guinea pig left atrium = experiment: isolated guinea pig left atrium, isometric contraction in organ bath; conditions: Cavia porcellus, read-out: Contractile foece of guinea pig left atrium Increase rate (%); for activation at 30 µg/mL: Dosage 3x10^-5 g/ml; for activation at 10 µg/mL: Dosage 10^-5 g/ml
Description: 2) Method of using isolated guinea pig left atrium
Male guinea pigs weighing 200 - 300 g were killed by hitting their back of the heat and their left atria were immediately isolated. The left atrium was fixed to the bottom of an organ bath filled with 30 ml of Klebs-Henseleit's solution maintained at 35 °C. A mixed gas comprising 95 % of 02 and 5 % of C02 was passed through the Klebs-Henseleit's solution in the organ bath. The auricle of the left atrium was connected to a transducer with a thread to measure the isometric contraction. The atrium was applied with 0.5 g of resting tension. The atrium was electrically driven by square wave of 1 millisecond duration at a voltage of the order of 1.5 times of the threshold voltage and at a rate of twice per second by means of two platinum electrodes. The preparation was stabilized for 30 minutes, then the compound dissolved in solvent was added to the organ bath, and the reaction was determined.

## COc1ccc(CN2CCN(C(=O)COc3ccc(C4=NNC(=O)CC4)cc3)CC2)c(OC)c1OC [Compound of Example 2]
Anesthetized dog; Dosage 30 µg/kg i.v.
  dp/dtmax Increasing rate (%): 12.2%
  Co Increasing rate (%): 4.8%
  Cont Increasing rate (%): 10.1%
Anesthetized dog; Dosage 100 µg/kg i.v.
  dp/dtmax Increasing rate (%): 34.3%
  Co Increasing rate (%): 16.3%
  Cont Increasing rate (%): 22.8%
Dog papillary muscle
  activation at 0.03 mg: 11.4%
  activation at 0.1 mg: 12.5%
Guinea pig left atrium
  activation at 30 µg/mL: 22.6%
  activation at 10 µg/mL: 6.4%

## COc1cc(C2=NNC(=O)CC2)ccc1OCC(=O)N1CCN(Cc2ccc(OC)c(OC)c2OC)CC1 [Compound of Example 1]
Anesthetized dog; Dosage 30 µg/kg i.v.
  dp/dtmax Increasing rate (%): 12.9%
  Co Increasing rate (%): 5.5%
  Cont Increasing rate (%): 7.9%
Anesthetized dog; Dosage 100 µg/kg i.v.
  dp/dtmax Increasing rate (%): 27.1%
  Co Increasing rate (%): 13.3%
  Cont Increasing rate (%): 21.5%
Dog papillary muscle
  activation at 0.03 mg: 10%
  activation at 0.1 mg: 20.1%
Guinea pig left atrium
  activation at 30 µg/mL: 44.8%
  activation at 10 µg/mL: 35.5%

## COc1ccc(N2CCN(C(=O)C(C)Oc3ccc(C4=NNC(=O)CC4)cc3OC)CC2)cc1 (stereo not shown) [Compound of Example 4]
Anesthetized dog; Dosage 30 µg/kg i.v.
  dp/dtmax Increasing rate (%): 9.9%
  Co Increasing rate (%): 8.7%
  Cont Increasing rate (%): 3.6%
Anesthetized dog; Dosage 100 µg/kg i.v.
  dp/dtmax Increasing rate (%): 19.2%
  Co Increasing rate (%): 19.6%
  Cont Increasing rate (%): 10.0%
Dog papillary muscle
  activation at 0.03 mg: 7.5%
  activation at 0.1 mg: 24.8%
Guinea pig left atrium
  activation at 30 µg/mL: 35.9%
  activation at 10 µg/mL: 23.8%

## COc1ccc(CN2CCN(C(=O)COc3ccc(C4=NNC(=O)CC4)cc3)CC2)cc1 [Compound of Example 3]
Anesthetized dog; Dosage 30 µg/kg i.v.
  dp/dtmax Increasing rate (%): 18.0%
  Co Increasing rate (%): 17.4%
  Cont Increasing rate (%): 12.2%
Anesthetized dog; Dosage 100 µg/kg i.v.
  dp/dtmax Increasing rate (%): 49.8%
  Co Increasing rate (%): 28.9%
  Cont Increasing rate (%): 29.1%
Dog papillary muscle
  activation at 0.03 mg: 13.2%
  activation at 0.1 mg: 17%
Guinea pig left atrium
  activation at 30 µg/mL: 28%
  activation at 10 µg/mL: 32%

— EP0252422A2, “Pyridazinone derivatives and salts thereof” (MITSUBISHI KASEI CORPORATION, priority 1986, dated 1988)
